Data set [1] is described as follows: Recovery of 3-OH isoC17:0 fatty acid from brains of mice with EAE (GC-MS). It is filed as in vivo, mouse. The note with it: mice that received PE DHC and had a disease score greater than 3.0, versus PBS or EtOH controls. The protocol: Mice treated with PBS, EtOH or with 25 ng, 250 ng, or 2.5 μg PE DHC were sacrificed after day 20 post-EAE immunization. The brains were removed and extracted for phospholipids according to the method of Bligh and Dyer as previously described in Nichols “Distribution of 3-hydroxy iC17:0 in subgingival plaque and gingival tissue samples: Relationship to adult periodontitis” Infect. Immun. 62:3753-3760 (1994). Lipid extracts were dissolved in hexane isopropanol:water (6:8:0.75, v/v/v/) and three 0.5 mg aliquots were dispensed into glass tubes supplemented with 30 ng of isobranched C20:0. […] Lipids were treated to form pentofluorobenzyl ester, trimethylsilyl ether derivatives and analyzed by negative ion chemical ionization GC-MS, as described in Nichols (1994). Fatty acid recovery was quantified by selected ion monitoring for characteristic fatty acid negative ions. The data were expressed as picograms of 3-OH isobranched (iso)C17:0 per 0.5 mg of total brain lipid extracted.
The cumulative disease index (CDI) was obtained by summing the daily average disease scores through Day 20. A mean of these daily disease scores (Mean Daily Disease) (+/−SEM) was calculated based on the 20 days of observation. […] Bacterial fatty acid levels in brain lipid extracts for each treatment group were evaluated using least squares linear regression analysis that included calculation of correlation coefficients. […]

Data set [2] concerns naïve CD4+CD25− T cells with T cell-depleted splenocytes (Tds). Nature of the data set: In vitro generation of Th17 T cells. Type of data set: cell-based, mouse. Particulars: PE DHC 20 μg/ml sonicated liposomes; WT or TLR2−/− Tds; anti-CD3, GM-CSF, TGF-β; 5 days. The method, then:
CD4+CD25− T cells (Teff) were derived from WT mice using magnetic bead purification (Miltenyi Biotec, Auburn, Calif.). T cell-depleted splenocytes (Tds) were derived from WT or TLR2^−/− mice using magnetic bead purification followed by irradiation (2600R). Teff (0.25×10^6/well) and Tds (0.75×10^6/well) were cultured in 24-well plates with anti-CD3 antibody (1 μg/ml), GM-CSF (20 ng/ml) (Pierce Inc., Thermo Fisher Scientific, Rockford, Ill.) and recombinant TGF-β (2 ng/ml) (R&D). In addition, LPS (2 μg/ml), MMP (5 μg/ml) or P. gingivalis PE DHC (20 μg/ml of sonicated liposome preparations) were added to wells to stimulate the secretion of IL-6. Cultures were harvested after 5 days, stimulated in culture for 4 hrs with phorbol myristyl acetate and ionomycin and stained for Thy1.2, intracellular IFNγ, and IL-17 and analyzed by FACS after gating on Thy 1.2+ cells.
PE DHC's ability to induce IL-6 secretion was characterized by testing its ability to induce Th17 T cell generation from cultures of naïve CD4+ CD25-T cells activated in the presence of APCs (T cell depleted splenocytes; Tds) and TGF-β. See Bettelli et al. “T(H)-17 cells in the circle of immunity and autoimmunity” Nat. Immunol. 2007, 8:345-350.

Another data set concerns bone marrow DCs (BMDCs). In words: Stimulation of bone marrow dendritic cells, IL-6 ELISA and surface activation markers. Type of data set: cell-based, mouse. The note with it: for IL-6 secretion: plate-bound LPS 1 μg, MMP 10 μg, PE DHC 2.5 μg, 18 hrs. The protocol:
Bone marrow cells from C57BL/6 and TLR2^−/− mice were cultured at 2×10^5 cells/ml in RPMI containing 10% FCS, 2-ME, and 20 ng/ml recombinant murine GM-CSF for 9 days. Bone marrow DCs (BMDCs) were harvested at Day 9 and were greater than 80% CD11c+. LPS (1 μg), MMP (10 μg) (a bacterial lipoprotein and known TLR-2 ligand (Bachem H-9460), PE DHC (2.5 μg) or 70% EtOH, all in 20 ul volumes, were allowed to dry in the wells of a 24-well plate overnight prior to the addition of BMDCs. BMDCs were cultured in the ligand-bound 24-well plates at 1×10^6 cells/ml in RPMI containing GM-CSF. After 18 hrs, culture supernatants were harvested and tested for IL-6 via ELISA.
The effects of PE DHC on antigen presenting cell (APC) activation in vitro were examined Dendritic cells (BMDCs) (>85% CD11c+) were derived from the bone marrow of WT or TLR2^−/− mice and cultured either alone or with EtOH, LPS, MMP (a TLR2 ligand), or PE DHC. After 18 hrs supernatants were assayed for IL-6. […] BMDCs were also assayed for expression of the surface activation markers B7.2 and MHC class II.

In the case of “phosphoethanolamine dihydroceramide [PE DHC]”, the “Brain level of 3-OH isoC17:0 fatty acid” value in data set [1] is “higher levels of 3-OH isoC17:0 fatty acid”. Further, in data set [2], the “Generation of Th17 T cells” value was “resulted in the generation of Th17 T cells in cultures containing WT but not TLR2^−/− Tds”. Also, the IL-6 secretion result in the data set on bone marrow DCs (BMDCs) (TLR2−/− BMDCs) is on record as “did not result in IL-6 secretion”; in the data set on bone marrow DCs (BMDCs) (WT BMDCs) it was “levels of IL-6 secretion that were almost equivalent to that seen with LPS”. Also, the “Expression of surface activation markers B7.2 and MHC class II” value in the data set on bone marrow DCs (BMDCs) (WT and TLR2−/− BMDCs) was “increased MHC II and B7.2 expression on WT but not TLR2^−/− BMDCs”.

Values taken from US20160084855A1, “Compositions and Methods for Modulation and Detection of Immune and Inflammatory Responses” (UNIVERSITY OF CONNECTICUT, priority 2013, published 2016).
